As usually defined, the half-life is the time in which the quantity being followed falls by half.

A short description of data set [1]: In vitro incubation of prodrugs with LPL supplemented rat plasma. The class given is in vitro ADME, Sprague Dawley rat. As to conditions: over 3 h. The procedure: […] is tethered to the luminal surface of vascular endothelial cells under physiological conditions ([Bensadoun 1991]). In the current in vitro studies, rat plasma was therefore supplemented with LPL to better reflect the in vivo situation. To start hydrolysis, 10 µl of LPL solution (10,000 IU/ml) was added to a mixture of 10 µl of prodrug solution (0.1 mg/ml dissolved in acetonitrile) and 500 µl of blank Sprague Dawley rat plasma. The solution was incubated at 37°C. Samples (20 µl) of the incubation solution were taken at 0, 5, 15, 30, 60, 90, 120 and 180 min post incubation and added to 180 µl of ACN to stop lipolysis. The mixture was vortexed and centrifuged at 4,500 g for 5 min to precipitate proteins prior to analysis.
(§1) Absolute quantification of the hydrolysis products, i.e., MG derivatives and BUP-linker-COOH forms (“acid” forms) was not attempted due to lack of authentic standards. Instead, the profiles for these species were plotted based on the peak areas obtained from HPLC-MS. […] To illustrate changes to the BUP-linker-acid forms, the relative changes were plotted as the peak areas on the right-hand Y axis in Figures 3 and 5.

Data set [2] is described as follows: In vitro digestion of prodrugs by porcine pancreatin in simulated intestinal fluid (SIF). The format is in vitro ADME. Particulars: for MG intermediate detected in SIF: after 30 min incubation; for half-life at 1.96 µg/ml: pig, pH 6.5, SIF with porcine pancreatin, read-out: apparent half-life of MG intermediate in SIF. The procedure:
Briefly, the lipase solution was prepared by dispersion of porcine pancreatin (10,000 IU/ml) in a lipolysis buffer (pH 6.5) containing tris-maleate (2 mM), CaCl2 (1.4 mM) and NaCl (150 mM), followed by centrifugation at 2,000 g for 15 min at 5°C to provide the lipase solution as the supernatant. To start the hydrolysis, 100 µl of the lipase solution was added to a mixture of 20 µl of prodrug solution (0.1 mg/ml dissolved in acetonitrile) and 900 µl of simulated intestinal micellar solution (3 mM of sodium taurodeoxycholate and 0.75 mM of phosphatidylcholine dispersed in lipolysis buffer). The solution was incubated at 37°C. Samples (20 µl) of the incubation solution were taken at 0, 5, 10, 15, 30, 60, 90, 120 and 180 min post incubation and added to 180 µl of acetonitrile to stop lipolysis. The mixture was vortexed and centrifuged at 4,500 g for 5 min to precipitate proteins prior to analysis. The supernatant was analysed by HPLC-MS/MS for the potential products (Figure 1) of prodrug hydrolysis as described in the Supplementary Material.
as §1

Details of data set [3]: method as in earlier work. As to conditions: ref Tauber, Schroder, Dusterberg and Matthes 1986b; Shackleford et al., 2003; cited from earlier work.

As for `CO[C@]12CC[C@@]3(C[C@@H]1[C@](C)(O)C(C)(C)C)[C@H]1Cc4ccc(OC(=O)CCC(=O)OC(CO)CO)c5c4[C@@]3(CCN1CC1CC1)[C@H]2O5` [BUP-C4-MG], in data set [1], the “BUP-linker-acid form detected in plasma” value is “no BUP-linker-acid forms were detected”. In data set [2], the “MG intermediate detected in SIF” value is recorded as “only trace quantities” and the half-life at 1.96 µg/ml is below 10 min.
In the case of `CO[C@]12CC[C@@]3(C[C@@H]1[C@](C)(O)C(C)(C)C)[C@H]1Cc4ccc(OC(=O)CC(C)CC(=O)OC(CO)CO)c5c4[C@@]3(CCN1CC1CC1)[C@H]2O5` (stereo partly drawn) [BUP-C5bMe-MG], the “BUP-linker-acid form detected in plasma” value in data set [1] is “no BUP-linker-acid forms were detected”. Moreover, the half-life at 1.96 µg/ml in data set [2] is above 60 min.
Turning to `CO[C@]12CC[C@@]3(C[C@@H]1[C@](C)(O)C(C)(C)C)[C@H]1Cc4ccc(OC(=O)CCCCOC(=O)CCC(=O)OC(CO)CO)c5c4[C@@]3(CCN1CC1CC1)[C@H]2O5` [BUP-CE-C4-MG], the “BUP-linker-acid form detected in plasma” value in data set [1] is listed as “transiently detected”. Also, the “MG intermediate detected in SIF” value in data set [2] was “only trace quantities”.
As to `CO[C@]12CC[C@@]3(C[C@@H]1[C@](C)(O)C(C)(C)C)[C@H]1Cc4ccc(OC(=O)CC(C)(C)c5c(C)cc(C)cc5OC(=O)CCC(=O)OC(CO)CO)c5c4[C@@]3(CCN1CC1CC1)[C@H]2O5` [BUP-TML-C4-MG], the “BUP-linker-acid form detected in plasma” value in data set [1] is listed as “no BUP-linker-acid forms were detected”. The “MG intermediate remaining in simulated GI fluids” value in data set [2] (after 2 h) is recorded as “more than half”.
For `CO[C@]12CC[C@@]3(C[C@@H]1[C@](C)(O)C(C)(C)C)[C@H]1Cc4ccc(OC(=O)CC(C)(C)c5c(C)cc(C)cc5OC(=O)CC(C)CC(=O)OC(CO)CO)c5c4[C@@]3(CCN1CC1CC1)[C@H]2O5` (stereo partly drawn) [BUP-TML-C5bMe-MG], in data set [1], the “BUP-linker-acid form detected in plasma” value is “no BUP-linker-acid forms were detected”. Besides, in data set [2] (at the end of the 3 h incubation, relative peak area), the “MG intermediate remaining in SIF” value is “more than 80%”.
As to `CCCCCCCCCCC(=O)O[C@H]1CC[C@H]2[C@@H]3CCC4=CC(=O)CC[C@]4(C)[C@H]3CC[C@]12C` [testosterone undecanoate], in data set [3], the “oral bioavailability for TST” value is around 5%.

Source of the values: article PMC9039622 (Frontiers in Pharmacology, 2022).
